# Reference: patent US20130252890A1, “6,7-DIHYDRO-5H-BENZO[7]ANNULENE DERIVATIVES, PROCESS FOR PREPARATION THEREOF, PHARMACEUTICAL PREPARATIONS COMPRISING THEM, AND THE USE THEREOF FOR PRODUCTION OF MEDICAMENTS” (BAYER INTELLECTUAL PROPERTY GMBH, priority 2010, published 2013)
# Entries after “also recorded” stand apart in the source; their conditions may differ.
# Legend:
# uterus [1] = test: Oestrogenic action - uterus growth test in the infantile rat; type: in vivo; settings: sc, 72 h, s.c. 3 days, maximum at dose 0.1 mg/kg, relative to E2 0.3 μg/animal, read-out: maximum uterotropic action (% estradiol action) in the dose range from 0.03 to 3 mg/kg
# Method: Both the uterus and the vagina show a weight increase that is dependent on oestrogenic efficacy, in infantile animals when they are treated with a substance with oestrogenic action. In the uterus, under oestrogenic action there is also proliferation and increase in height of the luminal epithelium.
# Immature, intact rats (n=5-6 animals/group; body weight 40-50 g) receive the substance s.c. for 3 days (d1-d3). On day 4 (d4) the animals are killed with CO2. The uteri are removed and weighed. For histological assessment, a piece of uterus, preferably a uterine horn, is fixed in formaldehyde and embedded in paraffin. The stimulation of the organ weights (relative to mg/100 g body weight) and the height of the epithelium are shown as percentage stimulation in comparison with the reference compound 17β-estradiol (E2). (Substitution dose of E2 0.3 μg/animal).
# uterus [2] = test: Anti-uterus growth test in the adult rat; settings: sc, 72 h; ovariectomized adult rat, s.c. 3 days with 1.5 μg/kg/day 17β-estradiol; inhibition of uterus growth; value of 44 is a mean of two measurements; read-out: anti-oestrogenic activity in vivo in % at a dose of 0.3 mg/kg (rat)
# Procedure, shortened: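 Rats ovariectomized 6–10 days earlier (n=5–6/group) received test substances s.c. on days 1–3 together with 17β-estradiol at 1.5 μg/kg/day; estradiol alone and excipients served as controls. On day 4, uterus and vagina weights were normalized to mg/100 g body weight. Inhibition of estradiol-induced uterine growth is given as a percentage.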
# [3] = system: peripheral cholesterol level; test: Hepatic oestrogenicity in the ovariectomized adult rat (plasma cholesterol); type: in vivo; settings: ovariectomized adult rats, s.c. daily for 6 days; cholesterol day 0 vs day 8
# From the text: Substances with oestrogenic action influence the synthesis of various plasma proteins, of coagulation factors and fibrinolytic factors in the liver. […] In the present investigations, lowering of the peripheral cholesterol level is used as a surrogate parameter for analysis of the hepatic oestrogenicity of the claimed pharmacological compounds. Adult ovariectomized rats were, after a pause of 6-10 days, treated daily for 6 days with the substances by subcutaneous application. The plasma cholesterol levels were determined and compared before and after the respective treatment.
# [4] = system: ovarian estradiol synthesis; test: Stimulation of ovarian oestrogen synthesis (HPG axis) in intact adult rats; type: in vivo, rat; settings: hormonally intact adult rats, daily for 10 days; quotient of peripheral estradiol values after and before treatment
# From the text: The clinical use both of pure anti-oestrogens and of various SERMs for the treatment of premenopausal women is limited by their property of stimulating the ovaries through activation of the hypothalamic-pituitary-gonadal axis (HPG axis), which leads to the increase in peripheral estradiol levels (Palomba, S., Orio, F., Jr., Morelli, M., Russo, T., Pellicano, M., Zupi, E., Lombardi, G., Nappi, C., Panici, P. L., and Zullo, F. (2002). Raloxifene administration in premenopausal women with uterine leiomyomas: a pilot study. J Clin Endocrinol Metab 87, 3603-3608). This stimulation of the HPG axis is associated with penetration of the blood-brain barrier and penetration of the brain. To investigate the ovary-stimulating properties of the claimed pharmacological compounds, hormonally intact adult rats were treated with the substances daily for a period of 10 days. The study end point is the quotient of peripheral estradiol values after and before treatment.
# mammary gland = test: Action on the mammary gland in the juvenile rat; type: in vivo; settings: juvenile ovariectomized rats, 6 days
# Method: The formation of secretory units in the mamma is dependent in particular on gestagens and oestrogens. […] To investigate the stimulating action of test compounds, animals are ovariectomized at the age of 21 days and after a treatment-free interval of 6 days treated either with a combination of the test compound and an oestrogen (for example 70 μg/kg E1) or a combination of the test compound and a gestagen (for example promegestone 0.3 mg/kg) in each case for a period of 6 days. To investigate the antagonistic potential of a test compound, the test compound is given for a period of 6 days together with an oestrogen (see above) and a gestagen (see above). Finally one of the abdominal-inguinal mammary glands is prepared and submitted to so-called whole-mount staining. The number of secretory units on an area of approx. 1.0 mm^2 serves as the end point (moreover, this can also vary according to requirements).
smiles,measurement,setting,value
"CN(CCCCCCC1=C(c2cc(F)cc(F)c2)CCCc2cc(O)ccc21)CCCCS(=O)(=O)CCCC(F)(F)F [Example 44, 8-(3,5-Difluorophenyl)-9-[6-(methyl{4-[(4,4,4-trifluorobutyl)sulphonyl]butyl}amino)hexyl]-6,7-dihydro-5H-benzo[7]annulen-3-ol]",Emax at 0.1 mg/kg,uterus [1],6%
same,inhibition in vivo at 0.3 mg/kg,uterus [2],37%
same,hepatic oestrogenicity: lowering of the peripheral cholesterol level,[3],only observed at high dosage
same,Stimulation of ovarian oestrogen synthesis: factor at a dose of 3 mg/kg rat,[4],1.2
same,induction of mammary gland differentiation (agonistic potential),mammary gland; test compound alone with gestagen R5020 or alone with oestrogen E1,"no induction of mammary gland differentiation significantly different from the group given excipients; also recorded: did not show any agonistic, inducing potential"
same,formation of mammary secretory units induced by E1 and R5020,mammary gland; test compound with oestrogen E1 and gestagen promegestone (R5020),dose-dependent inhibition; also recorded: dose-dependent reduction of this effect
